Active and inactive are the calls of the source. No cut-off for these calls is given here.
Key:
RKO [1] = assay: Induction of cell cycle arrest in human RKO cells assessed as upregulation of P21 protein level by Western blot analysis; format: functional, cell-based
[2] = Tmax in male ICR (CD-1) mouse at 20 mg/kg, po measured upto 24 hrs by LC-MS/MS analysis; format: ADME, organism-based; settings: in vivo
[3] = Oral bioavailability in male ICR (CD-1) mouse at 20 mg/kg measured upto 24 hrs by LC-MS/MS analysis; format: ADME, organism-based; settings: in vivo
HCT-116 [4] = assay: Antiproliferative activity against human HCT-116 cells incubated for 24 hrs by MTT assay; format: functional, cell-based; settings: HCT-116, 24 h
RKO [5] = assay: Induction of cell cycle arrest in human RKO cells assessed as downregulation of Cyclin A2 protein level by Western blot analysis; format: functional, cell-based
[6] = Toxicity in male BALB/c mouse xenografted with human HCT-116 cells assessed as effect on serum ALT level at 10 to 40 mg/kg, ip by biochemical analysis; format: organism-based; settings: in vivo, dose 10-40 mg/kg
RKO [7] = assay: Induction of cell cycle arrest in human RKO cells assessed as downregulation of Cyclin D1 protein level by Western blot analysis; format: functional, cell-based
HCT-116 [8] = assay: Induction of cell cycle arrest in human HCT-116 cells assessed as accumulation of cells at S phase incubated for 24 hrs by PI staining based flow cytometry; format: functional; settings: dose 6-10 µM
[9] = Toxicity in male BALB/c mouse xenografted with human HCT-116 cells assessed as effect on serum ALP level at 10 to 40 mg/kg, ip by biochemical analysis; format: organism-based; settings: in vivo, dose 10-40 mg/kg
RKO [10] = assay: Antiproliferative activity against human RKO cells assessed as inhibition of DNA replication at 10 uM incubated for 22 hrs by fluorescence based microscopic analysis; format: functional, cell-based
[11] = AUC (0 to infinity) in male ICR (CD-1) mouse at 20 mg/kg, po measured upto 24 hrs by LC-MS/MS analysis; format: ADME, organism-based; settings: in vivo
RKO [12] = assay: Inhibition of Hsp90/beta-catenin in human RKO cells at 6 to 10 uM incubated for 24 hrs by co-immunoprecipitation analysis; format: cell-based; settings: dose 6-10 µM
RKO [13] = assay: Inhibition of Wnt/beta-catenin signaling pathway in human RKO cells assessed as induction of beta-catenin degradation in presence of MG132 by Western blot analysis; format: cell-based
[14] = Half life in male ICR (CD-1) mouse at 20 mg/kg, po measured upto 24 hrs by LC-MS/MS analysis; format: ADME, organism-based; settings: in vivo
[15] = AUC (0 to infinity) in male ICR (CD-1) mouse at 5 mg/kg, iv measured upto 24 hrs by LC-MS/MS analysis; format: ADME, organism-based; settings: in vivo
HCT-116 [16] = assay: Induction of cell cycle arrest in human HCT-116 cells assessed as downregulation of c-Myc protein level by Western blot analysis; format: functional, cell-based
HCT-116 [17] = assay: Inhibition of colony formation in human HCT-116 cells incubated for 24 hrs by crystal violet staining based analysis; format: functional, cell-based; settings: dose 6-10 µM
HCT-116 [18] = assay: Inhibition of Wnt/beta-catenin signaling pathway in human HCT-116 cells assessed as induction of beta-catenin degradation pretreated with cycloheximide followed by compound addition by Western blot analysis; format: cell-based; settings: time <= 6.0 hrs, TDE = time-dependent effect
Homo sapiens [19] = species on record: Homo sapiens; assay: Induction of human HSP90 stabilization assessed as protection against pronase E-mediated hydrolysis at 25 to 50 uM incubated for 1 hr by DART assay; settings: dose 25-50 µM
[20] = Toxicity in male BALB/c mouse xenografted with human HCT-116 cells assessed as histological change in spleen at 10 to 40 mg/kg, ip by H and E staining based optical microscopic analysis; format: organism-based; settings: in vivo, dose 10-40 mg/kg
RKO [21] = assay: Inhibition of Wnt/beta-catenin signaling pathway in human RKO cells assessed as downregulation of beta-catenin expression incubated for 24 hrs by qRT-PCR analysis; format: cell-based; settings: dose <= 10.0 µM
RKO [22] = assay: Antiproliferative activity against human RKO cells assessed as inhibition of DNA proliferation at 10 uM incubated for 22 hrs by fluorescence based microscopic analysis; format: functional, cell-based
HCT-116 [23] = assay: Antiproliferative activity against human HCT-116 cells assessed as inhibition rate at 20 uM incubated for 24 hrs by MTT assay relative to control; format: functional
RKO [24] = assay: Antiproliferative activity against human RKO cells incubated for 24 hrs by MTT assay; format: functional, cell-based
[25] = Toxicity in male BALB/c mouse xenografted with human HCT-116 cells assessed as effect on serum AST level at 10 to 40 mg/kg, ip by biochemical analysis; format: organism-based; settings: in vivo, dose 10-40 mg/kg
RKO [26] = assay: Induction of cell cycle arrest in human RKO cells assessed as accumulation of cells at S phase incubated for 24 hrs by PI staining based flow cytometry; format: functional; settings: dose 6-10 µM
[27] = Half life in male ICR (CD-1) mouse at 5 mg/kg, iv measured upto 24 hrs by LC-MS/MS analysis; format: ADME, organism-based; settings: in vivo
[28] = Clearance in male ICR (CD-1) mouse at 5 mg/kg, iv measured upto 24 hrs by LC-MS/MS analysis; format: ADME, organism-based; settings: in vivo
RKO [29] = assay: Induction of cell cycle arrest in human RKO cells assessed as downregulation of Cyclin B1 protein level by Western blot analysis; format: functional, cell-based
Homo sapiens [30] = species on record: Homo sapiens; assay: Binding affinity to recombinant N-terminal GST-tagged human HSP90 (1 to 224 residues) extracted from Escherichia coli BL21 (DE3) cells at 200 uM in presence of biotin probe 1 by pulldown analysis
[31] = Toxicity in male BALB/c mouse xenografted with human HCT-116 cells assessed as effect on body weight at 10 to 40 mg/kg, ip measured every two days for upto 20 days; format: organism-based; settings: in vivo, 480 h, dose 10-40 mg/kg, time < 20 day
[32] = Toxicity in male BALB/c mouse xenografted with human HCT-116 cells assessed as histological change in lung at 10 to 40 mg/kg, ip by H and E staining based optical microscopic analysis; format: organism-based; settings: in vivo, dose 10-40 mg/kg
[33] = Cmax in male ICR (CD-1) mouse at 10 mg/kg, ip measured upto 24 hrs by LC-MS/MS analysis; format: ADME, organism-based; settings: in vivo
[34] = biological target: Heat shock protein HSP90 (Homo sapiens) (UniProt P07900+P08238); assay: Induction of thermal stabilization of Hsp90 in human RKO cells at 37 to 82 degree C at 100 uM incubated for 1 hr by thermal shift assay; format: cell-based
[35] = Cmax in male ICR (CD-1) mouse at 20 mg/kg, po measured upto 24 hrs by LC-MS/MS analysis; format: ADME, organism-based; settings: in vivo
HCT-116 [36] = assay: Inhibition of Wnt/beta-catenin signaling pathway in human HCT-116 cells assessed as induction of beta-catenin degradation in presence of MG132 by Western blot analysis; format: cell-based
HCT-116 [37] = assay: Induction of cell cycle arrest in human HCT-116 cells assessed as downregulation of Cyclin B1 protein level by Western blot analysis; format: functional, cell-based
HCT-116 [38] = assay: Inhibition of Hsp90/beta-catenin in human HCT-116 cells at 6 to 10 uM incubated for 24 hrs by co-immunoprecipitation analysis; format: cell-based; settings: dose 6-10 µM
RKO [39] = assay: Induction of cell cycle arrest in human RKO cells assessed as downregulation of CDK1 protein level by Western blot analysis; format: functional, cell-based
[40] = Binding affinity to recombinant N-terminal GST-tagged human HSP90 (1 to 224 residues) extracted from Escherichia coli BL21 (DE3) cells assessed as dissociation constant by surface plasmon resonance assay

Tmax [2]: 0.33 h | bioavailability [3]: 40% | IC50 (HCT-116 [4]): 8.31 µM | AUC(0-inf) [11]: 2720 ng·h/mL | half-life [14]: 2.6 h | AUC(0-inf) [15]: 1500 ng·h/mL | Activity (Homo sapiens [19]): Active | half-life [27]: 1.42 h | clearance [28]: 56.1 mL/min/kg | Activity (Homo sapiens [30]): Active | Cmax [33]: 1450 ng/mL | Activity [34]: Active | Cmax [35]: 832 ng/mL
SMILES: CC12c3ccc(Cl)cc3CCN1CCc1c2[nH]c2ccc(Cl)cc12 (stereo not given)
Activity (RKO [1]): Dose-Dependent Effect | Activity (RKO [5]): Dose-Dependent Effect | Activity [6]: Non-Toxic | Activity (RKO [7]): Dose-Dependent Effect | Activity (HCT-116 [8]): Dose-Dependent Effect | Activity [9]: Non-Toxic | Activity (RKO [10]): Active | inhibition (RKO [12]): Dose-Dependent Effect | inhibition (RKO [13]): inactive | Activity (HCT-116 [16]): Dose-Dependent Effect | inhibition (HCT-116 [17]): Dose-Dependent Effect | inhibition (HCT-116 [18]): Tde | Activity [20]: Non-Toxic | inhibition (RKO [21]): Dose-Dependent Effect | Activity (RKO [22]): Active | inhibition at 20 µM (HCT-116 [23]): 89.2% | IC50 (RKO [24]): 7.97 µM | Activity [25]: Non-Toxic | Activity (RKO [26]): Dose-Dependent Effect | Activity (RKO [29]): Dose-Dependent Effect | Activity [31]: Non-Toxic | Activity [32]: Non-Toxic | inhibition (HCT-116 [36]): inactive | Activity (HCT-116 [37]): Dose-Dependent Effect | inhibition (HCT-116 [38]): Dose-Dependent Effect | Activity (RKO [39]): Dose-Dependent Effect | Kd [40]: 12.2 µM

— ChEMBL document CHEMBL5608195, “Identification and biological evaluation of fused tetrahydroisoquinoline derivatives as Wnt/β-catenin signaling inhibitors to suppress colorectal cancer” (Eur J Med Chem, 2024)
